In patent US9487513B2, “Substituted pyrazolo[1,5-A]pyridines, their preparation and use as medicaments” (LABORATORIOS DEL DR. ESTEVE S.A., priority 2012, dated 2016):
Structures can show the parent of a compound that is named as a salt.

Target: T1, σ1-receptor (Cavia porcellus, UniProt Q60492)
T1 construct: Guinea pig brains were homogenized in 10 vols; (w/v) of Tris-HCl 50 mM 0.32 M sucrose; from tissue; host or cells: guinea pig brain membranes
Assay: σ1-receptor binding assay, [3H]-(+)-pentazocine, guinea pig brain membranes
Details: radioligand [3H]-(+)-pentazocine at 5.0 nM; guinea pig brain membrane; 150 min at 37° C.; nonspecific binding with 1 μM haloperidol
Protocol: Brain membrane preparation and binding assays for the σ1-receptor were performed as described (DeHaven-Hudkins, D. L., L. C. Fleissner, and F. Y. Ford-Rice, 1992, Characterization of the binding of [^3H](+)pentazocine to σ recognition sites in guinea pig brain, Eur. J. Pharmacol. 227, 371-378) with some modifications. Guinea pig brains were homogenized in 10 vols. (w/v) of Tris-HCl 50 mM 0.32 M sucrose, pH 7.4, with a Kinematica Polytron PT 3000 at 15000 r.p.m. for 30 s. The homogenate was centrifuged at 1000 g for 10 min at 4° C. and the supernatants collected and centrifuged again at 48000 g for 15 min at 4° C. The pellet was resuspended in 10 volumes of Tris-HCl buffer (50 mM, pH 7.4), incubated at 37° C. for 30 min, and centrifuged at 48000 g for 20 min at 4° C. Following this, the pellet was re-suspended in fresh Tris-HCl buffer (50 mM, pH 7.4) and stored on ice until use.
The radioligand used was [^3H]-(+)-pentazocine at 5.0 nM and the final volume was 200 μl. The incubation was initiated with the addition of 100 μl of membrane at a final tissue concentration of approximately 5 mg tissue net weight/mL and the incubation time was 150 m. at 37° C. After incubation, the membranes were collected onto pretreated glass fiber filterplate (MultiScreen-FC, Millipore), with polyethylenimine 0.1%. The filters were washed two times with 200 μl of washing buffer (50 mM Tris Cl, pH=7.4) and then 25 μl of Ecoscint H liquid scintillation cocktail were added. Microplates were allowed to set for several hours and then quantified by liquid scintillation spectrophotometry (1450 Microbeta, Wallac). Nonspecific binding was determined with 1 μM haloperidol.

T1 sequence (Q60492 whole entry): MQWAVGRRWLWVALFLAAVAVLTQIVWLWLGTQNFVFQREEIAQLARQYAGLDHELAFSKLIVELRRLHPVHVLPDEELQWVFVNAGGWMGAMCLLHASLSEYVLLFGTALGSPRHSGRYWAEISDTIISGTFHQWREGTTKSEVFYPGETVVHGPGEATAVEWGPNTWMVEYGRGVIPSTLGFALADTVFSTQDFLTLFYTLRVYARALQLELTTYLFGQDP

`c1c(OCCCCN2CCCCC2)nn2c1CCCC2` [Example 60, 2-(4-(piperidin-1-yl)butoxy)-4,5,6,7-tetrahydropyrazolo[1,5-a]pyridine oxalate] was tested. Which Ki did it give?
Its Ki is 40.7 nM.

Which Ki does the source give for `c1c(OCCCCN2CCCCC2)nn2c1CCCC2` [Example 61, 2-(4-(piperidin-1-yl)butoxy)-4,5,6,7-tetrahydropyrazolo[1,5-a]pyridine maleate] here?
The Ki was 28.5 nM.

How did the Ki turn out when `c1ccc(C2CCN(CCCCOc3cc4n(n3)CCCC4)CC2)cc1` [Example 63, 2-(4-(4-phenylpiperidin-1-yl)butoxy)-4,5,6,7-tetrahydropyrazolo[1,5-a]pyridine oxalate] was run?
Its Ki is 9.2 nM.

How did the Ki turn out when `CN(CCOc1cc2n(n1)CCCC2)Cc1ccccc1` [Example 64, N-benzyl-N-methyl-2-(4,5,6,7-tetrahydropyrazolo[1,5-a]pyridin-2-yloxy)ethanamine oxalate] was run?
The Ki was 15.4 nM.

How did the Ki turn out when `CC(C)(C)C1CCN(CCCCOc2cc3n(n2)CCCC3)CC1` [Example 65, 2-(4-(4-tert-butylpiperidin-1-yl)butoxy)-4,5,6,7-tetrahydropyrazolo[1,5-a]pyridine maleate] was run?
The Ki was 8.3 nM.

How did the Ki turn out when `CC(C)(C)C1CCN(CCOc2cc3n(n2)CCCC3)CC1` [Example 66, 2-(2-(4-tert-butylpiperidin-1-yl)ethoxy)-4,5,6,7-tetrahydropyrazolo[1,5-a]pyridine maleate] was run?
The Ki was 5.5 nM.

Which Ki does the source give for `CN(CCCCOc1cc2n(n1)CCCC2)C1CCN(Cc2ccccc2)CC1` [Example 67, 1-benzyl-N-methyl-N-(4-(4,5,6,7-tetrahydropyrazolo[1,5-a]pyridin-2-yloxy)butyl)piperidin-4-amine dimaleate] here?
Its Ki is 65.7 nM.

With `c1c(OCCCCN2CCC3CCCCC3C2)nn2c1CCCC2` (stereo not shown) [Example 68, 2-(4-(4,5,6,7-tetrahydropyrazolo[1,5-a]pyridin-2-yloxy)butyl)decahydroisoquinoline maleate] as the compound, how does the Ki read?
The Ki was 7.3 nM.

Which Ki does the source give for `c1c(OCCCCN2CCN(C3CCCCC3)CC2)nn2c1CCCC2` [Example 69, 2-(4-(4-cyclohexylpiperazin-1-yl)butoxy)-4,5,6,7-tetrahydropyrazolo[1,5-a]pyridine maleate] here?
Its Ki is 41.6 nM.

`c1ccc2c(c1)COC21CCN(CCCCOc2cc3n(n2)CCCC3)CC1` [Example 70, 1′-(4-(4,5,6,7-tetrahydropyrazolo[1,5-a]pyridin-2-yloxy)butyl)-3H-spiro[isobenzofuran-1,4′-piperidine]maleate] was tested. Which Ki did it give?
Its Ki is 21.6 nM.

With `c1c(OCCN2CCN(C3CCCCC3)CC2)nn2c1CCCC2` [Example 71, 2-(2-(4-cyclohexylpiperazin-1-yl)ethoxy)-4,5,6,7-tetrahydropyrazolo[1,5-a]pyridine maleate] as the compound, how does the Ki read?
The Ki was 39.3 nM.

How did the Ki turn out when `CN(CCOc1cc2n(n1)CCCC2)C1CCN(Cc2ccccc2)CC1` [Example 72, 1-benzyl-N-methyl-N-(2-(4,5,6,7-tetrahydropyrazolo[1,5-a]pyridin-2-yloxy)ethyl)piperidin-4-amine maleate] was run?
The Ki was 35 nM.

With `c1ccc2c(c1)COC21CCN(CCOc2cc3n(n2)CCCC3)CC1` [Example 74, 1′-(2-(4,5,6,7-tetrahydropyrazolo[1,5-a]pyridin-2-yloxy)ethyl)-3H-spiro[isobenzofuran-1,4′-piperidine]maleate] as the compound, how does the Ki read?
The Ki was 30.6 nM.

How did the Ki turn out when `c1c(OCCNC23CC4CC(CC(C4)C2)C3)nn2c1CCCC2` [Example 75, N-adamantyl-2-(4,5,6,7-tetrahydropyrazolo[1,5-a]pyridin-2-yloxy)ethanamine maleate] was run?
Its Ki is 31.7 nM.

With `c1c(OCCCCN2CCCCCC2)nn2c1CCCC2` [Example 78, 2-(4-(azepan-1-yl)butoxy)-4,5,6,7-tetrahydropyrazolo[1,5-a]pyridine maleate] as the compound, how does the Ki read?
Its Ki is 26.1 nM.

How did the Ki turn out when `CCCN(CCCCOc1cc2n(n1)CCCC2)CC1CC1` [Example 80, N-(cyclopropylmethyl)-N-propyl-4-(4,5,6,7-tetrahydropyrazolo[1,5-a]pyridin-2-yloxy)butan-1-amine maleate] was run?
Its Ki is 25 nM.

How did the Ki turn out when `c1c(OCCCCN2CC[C@H]3CCCC[C@@H]3C2)nn2c1CCCC2` [Example 81, (4aR,8aS)-2-(4-(4,5,6,7-tetrahydropyrazolo[1,5-a]pyridin-2-yloxy)butyl)decahydroisoquinoline maleate] was run?
Its Ki is 12.8 nM.

`CN(CCCCOc1cc2n(n1)CCCC2)Cc1ccccc1` [Example 82, N-benzyl-N-methyl-4-(4,5,6,7-tetrahydropyrazolo[1,5-a]pyridin-2-yloxy)butan-1-amine maleate] was tested. Which Ki did it give?
Its Ki is 8.1 nM.

Which Ki does the source give for `c1c(OCCCCNC23CC4CC(CC(C4)C2)C3)nn2c1CCCC2` [Example 83, N-adamantyl-4-(4,5,6,7-tetrahydropyrazolo[1,5-a]pyridin-2-yloxy)butan-1-amine maleate] here?
Its Ki is 34.8 nM.

Which Ki does the source give for `c1ccc2c(c1)CCN(CCCCOc1cc3n(n1)CCCC3)C2` [Example 84, 2-(4-(4,5,6,7-tetrahydropyrazolo[1,5-a]pyridin-2-yloxy)butyl)-1,2,3,4-tetrahydroisoquinoline maleate] here?
The Ki was 15.7 nM.

For `c1c(OCCCCNC2CCCCC2)nn2c1CCCC2` [Example 85, N-(4-(4,5,6,7-tetrahydropyrazolo[1,5-a]pyridin-2-yloxy)butyl)cyclohexanamine maleate], which Ki is on record?
The Ki was 42.5 nM.

Which Ki does the source give for `c1c(OCCCCN2CCSCC2)nn2c1CCCC2` [Example 86, 4-(4-(4,5,6,7-tetrahydropyrazolo[1,5-a]pyridin-2-yloxy)butyl)thiomorpholine maleate] here?
Its Ki is 8.4 nM.

With `c1c(OCCN2CC[C@H]3CCCC[C@@H]3C2)nn2c1CCCC2` [Example 87, (4aR,8aS)-2-(2-(4,5,6,7-tetrahydropyrazolo[1,5-a]pyridin-2-yloxy)ethyl)decahydroisoquinoline maleate] as the compound, how does the Ki read?
Its Ki is 3.3 nM.

For `c1c(OCCCCN2CCCOCC2)nn2c1CCCC2` [Example 89, 4-(4-(4,5,6,7-tetrahydropyrazolo[1,5-a]pyridin-2-yloxy)butyl)-1,4-oxazepane maleate], which Ki is on record?
The Ki was 10.1 nM.

For `CCCN(CCOc1cc2n(n1)CCCC2)CC1CC1` [Example 90, N-(cyclopropylmethyl)-N-(2-(4,5,6,7-tetrahydropyrazolo[1,5-a]pyridin-2-yloxy)ethyl)propan-1-amine maleate], which Ki is on record?
The Ki was 28.5 nM.

`CC(C)N1CCN(CCOc2cc3n(n2)CCCC3)CC1` [Example 91, 2-(2-(4-isopropylpiperazin-1-yl)ethoxy)-4,5,6,7-tetrahydropyrazolo[1,5-a]pyridine maleate] was tested. Which Ki did it give?
Its Ki is 195 nM.

How did the Ki turn out when `CC(C)N1CCN(CCCCOc2cc3n(n2)CCCC3)CC1` [Example 92, 2-(4-(4-isopropylpiperazin-1-yl)butoxy)-4,5,6,7-tetrahydropyrazolo[1,5-a]pyridine maleate] was run?
The Ki was 182 nM.

Which Ki does the source give for `CN1CCN(CCCCOc2cc3n(n2)CCCC3)CC1` [Example 93, 2-(4-(4-methylpiperazin-1-yl)butoxy)-4,5,6,7-tetrahydropyrazolo[1,5-a]pyridine maleate] here?
The Ki was 167 nM.

How did the Ki turn out when `CN1CCCN(CCCCOc2cc3n(n2)CCCC3)CC1` [Example 96, 2-(4-(4-methyl-1,4-diazepan-1-yl)butoxy)-4,5,6,7-tetrahydropyrazolo[1,5-a]pyridine maleate] was run?
Its Ki is 180 nM.

Which Ki does the source give for `CCN1CCN(CCCCOc2cc3n(n2)CCCC3)CC1` [Example 98, 2-(4-(4-ethylpiperazin-1-yl)butoxy)-4,5,6,7-tetrahydropyrazolo[1,5-a]pyridine maleate] here?
Its Ki is 138 nM.

With `c1c(OCCCN2CCCCC2)nn2c1CCCC2` [Example 99, 2-(3-(piperidin-1-yl)propoxy)-4,5,6,7-tetrahydropyrazolo[1,5-a]pyridine maleate] as the compound, how does the Ki read?
The Ki was 97.2 nM.

`c1c(OCCCN2CCN(C3CCCCC3)CC2)nn2c1CCCC2` [Example 100, 2-(3-(4-cyclohexylpiperazin-1-yl)propoxy)-4,5,6,7-tetrahydropyrazolo[1,5-a]pyridine maleate] was tested. Which Ki did it give?
The Ki was 37.1 nM.

`c1c(OCCCN2CCCOCC2)nn2c1CCCC2` [Example 101, 4-(3-(4,5,6,7-tetrahydropyrazolo[1,5-a]pyridin-2-yloxy)propyl)-1,4-oxazepane] was tested. Which Ki did it give?
Its Ki is 48.1 nM.

How did the Ki turn out when `CC(C)(C)C1CCN(CCCCOc2nn3c(c2Cl)CCCC3)CC1` [Example 105, 2-(4-(4-tert-butylpiperidin-1-yl)butoxy)-3-chloro-4,5,6,7-tetrahydropyrazolo[1,5-a]pyridine maleate] was run?
The Ki was 13.3 nM.

With `CN(CCOc1nn2ccccc2c1I)Cc1ccccc1` [Example 106, N-benzyl-2-(3-iodopyrazolo[1,5-a]pyridin-2-yloxy)-N-methylethanamine oxalate] as the compound, how does the Ki read?
The Ki was 5.8 nM.

`CN(CCOc1nn2c(c1I)CCCC2)Cc1ccccc1` [Example 107, N-benzyl-2-(3-iodo-4,5,6,7-tetrahydropyrazolo[1,5-a]pyridin-2-yloxy)-N-methylethanamine oxalate] was tested. Which Ki did it give?
The Ki was 2.95 nM.

With `Clc1c(OCCCCN2CCN(C3CCCCC3)CC2)nn2c1CCCC2` [Example 108, 3-chloro-2-(4-(4-cyclohexylpiperazin-1-yl)butoxy)-4,5,6,7-tetrahydropyrazolo[1,5-a]pyridine] as the compound, how does the Ki read?
The Ki was 11.4 nM.
